Laboratory results from patent publication US7429482B2, “Screening tools for discovery of novel anabolic agents” (United States of America as represented by the Department …, priority 2005, dated 2008).

Assays:
MAFbx mRNA = MAFbx mRNA half-life after actinomycin in C2C12.AR cells; assay type: cell-based, mouse
Method: (A) Rats were administered test agents as indicated in the figure for 7-days, at which time animals were sacrificed and MAFbx expression was determined in gastrocnemius muscles by qPCR. Data are mean values±SEM for at least 8 animals. * p<0.05 vs vehicle, t-test. (B) AR6 cells were seeded into 6-well plates and incubated overnight in growth medium. Medium was replaced with DMEM containing 2% horse serum followed by incubation for an additional 48 hours. Hormones or vehicle (EtOH) were added to the medium and cells were incubated overnight, at which time MAFbx mRNA levels were determined by qPCR and expressed as fold-induction versus levels in cells incubated with EtOH. Data are mean values±SEM for three determinations each performed in triplicate. * p<0.05 vs. EtOH (ANOVA). (C) Effect of testosterone on MAFbx mRNA half-life. C2C12.AR cells were incubated overnight in growth medium supplemented with testosterone or vehicle (EtOH). […] Levels of MAFbx mRNA are expressed as a percentage of those at time zero. […]
RNA was quantified by absorbance at 260 nm. […] Relative changes in expression were determined using the 2^−ΔΔCt method. Taqman Assay on Demand probes (Applied Biosystems) were used for all assays except rat 18S RNA, which was quantified using the following Assay on Demand Probes: Forward: […] […]

junB = assay: Acute denervation: junB mRNA in EDL and soleus (qPCR); assay type: in vivo, rat
[1] = Chronic denervation: gastrocnemius muscle weights; assay type: in vivo, rat
Method: (§1) Male Wistar rats weighing 200-250 gm (Taconic Farms, Germantown, N.Y.) were provided food and water ad libitum and were housed in a temperature and humidity controlled environment providing a 12:12 hour day-night cycle. For surgical procedures, animals were anesthetized with ketamine/xylazine. The left sciatic nerve was exposed by blunt dissection, and a 1 to 2 mm piece of this nerve was excised just below the level of the femoral head. A sham surgery was performed on the right hind limb in which the sciatic nerve was exposed but was not transected. Twenty eight days later, animals were anesthetized, and Alzet pumps were implanted subcutaneously on the back. […] Testosterone levels after replacement were approximately 15 nM, a high-normal range for rats of this age. Animals were sacrificed 3, 7 or 28 days after implantation of the miniosmotic pumps by inhalation of carbon dioxide. Gastrocnemius muscles were excised and weighed, then flash frozen on dry ice and stored at −80° C.

MuRF1 = assay: Chronic denervation: MuRF1 mRNA in gastrocnemius (qPCR); assay type: in vivo, rat; conditions: for reduction of MuRF1 expression: denervated muscle
Method: as §1
Total RNA was extracted from skeletal muscle (20 mg) by homogenization in guanidine thiocyanate using a Polytron followed by extraction of total RNA with phenol-chloroform as described by (Chomczynski and Sacchi, Anal Biochem 162: 156-159, 1987). Total RNA was further enriched using RNAeasy minicolumns (Qiagen, Valencia, Calif.). This procedure included digestion of contaminating DNA on the column with RNAse-free DNAse (Qiagen). Total RNA was eluted and quantified by absorbance at 260 nm. One μg of total RNA was used to prepare a cDNA library by reverse transcription (High Capacity cDNA Archive Kit, Applied Biosystems). Libraries were diluted 25-fold with water. Real time PCR was performed Taqman 2×PCR buffer (Applied Biosystems) using an Applied Biosystems 7500 thermocycler. Levels of gene expression in the denervated muscle were expressed as fold induction relative to muscle from the sham-denervated leg of animals administered vehicle. […] Fold-induction was determined using the 2^−ΔΔCt method, using expression of 18S RNA as the normalization control. […]

IGF-1 = assay: Chronic denervation: IGF-1 mRNA in gastrocnemius (qPCR); assay type: in vivo, rat
Method: as §1, with “Animals were sacrificed 3, 7 or 28 days after implantation of the miniosmotic pumps by inhalation of carbon dioxide. Gastrocnemius muscles were excised and weighed, then flash frozen on dry ice and stored at −80° C.” left out
Total RNA was extracted from skeletal muscle (20 mg) by homogenization in guanidine thiocyanate using a Polytron followed by extraction of total RNA with phenol-chloroform as described by (Chomczynski and Sacchi, Anal Biochem 162: 156-159, 1987). […] Total RNA was eluted and quantified by absorbance at 260 nm. […] Levels of gene expression in the denervated muscle were expressed as fold induction relative to muscle from the sham-denervated leg of animals administered vehicle. […] Fold-induction was determined using the 2^−ΔΔCt method, using expression of 18S RNA as the normalization control. […]

Structure (SMILES) | half-life of MAFbx mRNA versus absence of testosterone (MAFbx mRNA) | junB expression (junB; denervated EDL) | junB expression (junB; denervated soleus) | increase in junB expression (junB; soleus and EDL from sham-denervated limbs, tendency) | weights of denervated muscles versus vehicle ([1]; after 3 days of nandrolone (31 days)) | increase in mass of muscles in the normal limb ([1]; nandrolone 0.75 mg/kg/wk plus testosterone from day 28, not significant) | reduction of MuRF1 expression (MuRF1; 7-days administration) [%] | reduction of MuRF1 expression (MuRF1; 28-days administration) [%] | MuRF1 expression (MuRF1; muscle of sham-denervated hindlimbs) | IGF-1 expression (IGF-1; denervated muscle) | IGF-1 expression (IGF-1; sham-denervated muscle)
C[C@]12CC[C@H]3[C@@H](CCC4=CC(=O)CC[C@@]43C)[C@@H]1CC[C@@H]2O [testosterone] | not significantly different | – | – | – | – | – | – | – | – | – | –
C[C@]12CC[C@H]3[C@@H](CCC4=CC(=O)CC[C@@H]43)[C@@H]1CC[C@@H]2O [nandrolone] | – | significantly reduced | tended to reduce | approximately 2 fold | similar | 2-5% | 31 | 37 | no effect | did not alter | did not alter
